Reference: article PMC11353420, “Anti-Inflammatory, Cytotoxic, and Genotoxic Effects of Soybean Oligopeptides Conjugated with Mannose” (Foods, 2024)
Values joined by “and” are separate entries in the source; they are usually repeats but may differ in a detail not shown here. Equal entries are not always repeated. Values belong to the molecule of their own block, whether it stands above or below them.

Columns and labels:
[1] = tested on: Salmonella typhimurium strain TA100; assay: Salmonella mutation assay (Ames test), TA100; format: cell-based; conditions: positive mutagen
Description: (§1) Overnight bacterial cultures were mixed with various doses of test compounds with (+S9) or without (−S9) and incubated at 37 °C for 20 min. The top agar was added and then poured onto a plate of minimal glucose agar. The plates were incubated at 37 °C for 48 h. The number of revertant colonies was counted and the mutagenic index (MI) was calculated. 2-aminoanthracene (2-AA) and 2-(2-furyl)-3-(5-nitro-2-furyl)-acrylamide (AF-2) were used as positive mutagens in the presence and absence of S9.

[2] = tested on: Salmonella typhimurium strain TA98; assay: Salmonella mutation assay (Ames test), TA98; format: cell-based; conditions: positive mutagen
Description: as §1

[3] = tested on: HepG2 (Human liver carcinoma cell line); assay: SRB cytotoxicity assay, HepG2; format: cell-based
Source text: (§2) HEK293 (Human embryonic kidney cell line), HepG2 (Human liver carcinoma cell line), LX-2 (Human hepatic stellate cell line), and 3T3-L1 (Murine preadipocyte cell line) cells were obtained from the American Type Culture Collection (ATCC), Bethesda, MD, USA.

[4] = tested on: HEK293 (Human embryonic kidney cell line); assay: SRB cytotoxicity assay, HEK293; format: cell-based
Source text: as §2

[5] = tested on: LX-2 (Human hepatic stellate cell line); assay: SRB cytotoxicity assay, LX-2; format: cell-based
Source text: as §2

[6] = tested on: RAW 264.7 murine macrophage cell line; assay: SRB cytotoxicity assay, RAW 264.7
Description: The cells were maintained in a 5% CO2 humidified atmosphere (CO2 incubator, Thermo Scientific, Waltham, MA, USA) at 37 °C and sub-cultured every 3 days.
(§3) The cytotoxicity of the oligopeptide and its conjugated forms on HepG2, HEK293, LX-2, and RAW 264.7 cells, pre- and mature 3T3-L1 adipocytes, and hPBMCs was analyzed by a sulforhodamine (SRB) assay to obtain their non-toxic concentration for further experiments and as screening data for their in vitro safety. The cells were plated for 12 h in 96-well plates and then treated with the oligopeptide and its conjugated sugar at a concentration of 0–1000 µg/mL for 48 h. Dimethyl sulfoxide (DMSO) was used as a vehicle control (the untreated control). At the indicated time, the cells were then fixed and subjected to an SRB assay. The absorbance was measured at 510 nm by spectrophotometry (Gen5, BioTek, Winooski, VT, USA), and the cell viability was calculated as the ratio of the treatment versus untreated control. The data are represented as the mean ± standard deviation of three replicates and are expressed relative to the untreated control. The percentage of cell survival was calculated as follows:% cell survival = (Abs_extract/Abs_control) × 100

[7] = tested on: 3T3-L1 Pre-adipocyte; assay: SRB cytotoxicity assay, 3T3-L1 pre-adipocyte; format: cell-based, murine
Source text: as §2

[8] = tested on: 3T3-L1 Mature-adipocytes; assay: SRB cytotoxicity assay, 3T3-L1 mature adipocytes; format: cell-based, murine
Description: The pre-adipocyte 3T3-L1 cell line was differentiated to become mature adipocytes by culturing the cells to 100% confluence in 10% calf serum DMEM (CS medium), as Day 0 in a 96 well-plate. After post-confluence, the cells were incubated with the induction medium as a differentiation initiation medium (DMEM […] 1 μM DEX, 0.5 mM IBMX, 167 nM insulin, and 10% FBS) for 3 days (Days 1–3). After that, cells were cultured in a differentiation medium as an adipogenic differentiation medium (differentiation media: DMEM containing 167 nM insulin and 10% FBS) for 3 days (Days 4–6). Finally, maturation was induced in an induced-lipid accumulation medium (maturation media: DMEM containing 167 nM insulin and 10% FBS) for 6 days (Days 7–12). The mature adipocytes were then used for toxicity testing.
as §3

[9] = tested on: NO production in LPS-treated RAW 264.7 macrophages; assay: LPS-induced nitric oxide (NO)/nitrite production, Griess reaction; format: cell-based, murine; conditions: 100, 200, 400 µg/mL pretreatment 1 h, LPS 1 µg/mL 24 h
Description: To screen the anti-inflammation ability of the compounds, the nitrite level in the cultured medium of the treated cells was determined by the Griess reaction. RAW 264.7 macrophage cells were pretreated with various concentrations of the oligopeptide and its conjugated forms (100, 200, 400 µg/mL) for an hour and then incubated with LPS (1 µg/mL) for further 24 h at 37 °C in a 5% CO2 humidified atmosphere. The culture supernatant was collected for the Griess reagent assay as previous described. The NO production was calculated by comparison with LPS-treated controls.

[10] = tested on: iNOS; assay: iNOS protein level by immunoblotting in LPS-treated RAW 264.7; format: cell-based, murine; conditions: 100, 200, 400 µg/mL, LPS 1 µg/mL 24 h
Description: (§4) RAW 264.7 macrophage cells were pretreated with various concentrations of the oligopeptide and its conjugated forms (100, 200, 400 µg/mL) for an hour and then incubated with LPS (1 µg/mL) for a further 24 h (at 37 °C in a 5% CO2 humidified atmosphere). The cells were then collected to investigate the iNOS and COX-2 protein levels. Cell lysate was prepared to obtain the protein samples. The samples were subjected to 10% sodium dodecyl sulfate polyacrylamide gel electrophoresis (SDS-PAGE). The separated proteins were electrically transferred to a nitrocellulose membrane. The target proteins were probed with specific antibodies, including anti-COX-2 antibody (Cell signaling, Danvers, MA, USA), anti-iNOS antibody (Merck, Rahway, NJ, USA), and anti-β-actin antibody (Sigma, St. Louis, MO, USA). Protein detection was performed using a chemiluminescence reagent (Bio-Rad Laboratories, Watford, UK).

[11] = tested on: COX-2; assay: COX-2 protein level by immunoblotting in LPS-treated RAW 264.7; format: cell-based, murine; conditions: 100, 200, 400 µg/mL, LPS 1 µg/mL 24 h
Description: as §4

[12] = tested on: IL-6; assay: IL-6 secretion by ELISA in LPS-treated RAW 264.7; format: cell-based, murine; conditions: 100, 200, 400 µg/mL, LPS 1 µg/mL 24 h
Description: (§5) RAW 264.7 macrophage cells were pretreated with various concentrations of the oligopeptide and its conjugated forms (100, 200, 400 µg/mL) for an hour and then incubated with LPS (1 µg/mL) for further 24 h at 37 °C in a 5% CO2 humidified atmosphere. Then, a sandwich Enzyme Link Immuno-Sorbent Assay was carried out in accordance with the manufacturer’s protocols (BioLegend ELISA MAXTM Deluxe Set, San Diego, CA, USA) to measure TNF-α or IL-6 protein levels in the condition medium.

[13] = tested on: TNF-α; assay: TNF-α secretion by ELISA in LPS-treated RAW 264.7; format: cell-based, murine; conditions: 400 µg/mL, LPS-stimulated cells
Description: as §5

[14] = tested on: Drosophila melanogaster; assay: Somatic mutation and recombination test (SMART, wing spot test); format: in vivo; design: key to Statistical diagnosis vs DI (negative control), Small Single (1–2 Cells) / Statistical diagnosis vs DI (negative control), Large Single (>2 Cells) / Statistical diagnosis vs DI (negative control), Twin / Statistical diagnosis vs DI (negative control), Total Spots: + = positive; − = negative; i = inconclusive; conditions: 20 mM, positive control
Description: In brief, two strains of fruit flies, including mwh/mwh and ORR; flr^3/In(3LR) TM3, ri p^p sep l(3)89Aa bx^34e e Bd^S, were mated. […] After hatching, forty round wings were collected and analyzed for mutant spots (single, large, and twin spots). The statistical analysis for the wing spot test was performed as previously described. The Drosophila study was approved by the Institute of Nutrition—Mahidol University Institutional Animal Care and Use Committee (INMU-IACUC) (COA. No. INMU-IACUC 2023/01).

[15] = tested on: human red blood cells (RBCs); assay: Hemolysis assay; format: cell-based; conditions: 0.05%, positive control
Source text: As described by Karinchai et al., human peripheral blood mononuclear cells (PBMCs) and red blood cells (RBCs) were isolated from human blood samples [41]. Human blood samples of healthy subjects obtained from Maharaj Hospital, Chiang Mai, Thailand, were anonymized and kept in a heparinized tube by the laboratory. RBCs were collected and used to determined hemolysis induction by a hemolysis assay. Ficoll-Hypaque solution was used to isolate PBMCs, as described in the manufacturer’s instructions. A certificate of exemption by the Research Ethics Committee of the Faculty of Medicine, Chiang Mai University (No. EXEMPTION 8989/2022), was granted. Consent to participate was not applicable as all data were anonymized. All methods were carried out in accordance with relevant guidelines and regulations.
The hemolytic effect of the oligopeptide and its conjugated forms was determined by hemolysis assay. Briefly, the 5% RBCs suspension was mixed with various concentrations of the samples and further incubated at 37 °C for 3 h. The hemolysis induction by the compounds was measured as described previously. The hemolytic effect of each compound was interpreted using the following guidelines: 0–10% hemolysis is non-hemolysis, 10–25% hemolysis is slight hemolysis induction, and >25% hemolysis is high hemolysis induction.

Molecule: Nc1ccc2cc3ccccc3cc2c1 [2-AA, 2-aminoanthracene]
His^+ Revertant Colonies per Plate ([1]; TA100, +S9, 0.5 µg per plate): 599.7 ± 8.7
His^+ Revertant Colonies per Plate ([2]; TA98, +S9, 0.5 µg per plate): 325.8 ± 16.2

Molecule: NC(=O)C(=Cc1ccc([N+](=O)[O-])o1)c1ccco1 [AF-2, 2-(2-furyl)-3-(5-nitro-2-furyl)-acrylamide]
His^+ Revertant Colonies per Plate ([1]; TA100, −S9, 0.01 µg per plate): 527.3 ± 15.0
His^+ Revertant Colonies per Plate ([2]; TA98, −S9, 0.1 µg per plate): 293.0 ± 10.3

Molecule: O=C(CO)[C@H](O)[C@H](O)[C@H](O)CO [AL, D-allulose]
IC20 [3]: >1000 µg/mL
IC50 ([3]; HepG2, 48 h, SRB): >1000 µg/mL
IC20 [4]: >1000 µg/mL
IC50 ([4]; HEK293, 48 h, SRB): >1000 µg/mL
IC20 [5]: >1000 µg/mL
IC50 ([5]; LX-2, 48 h, SRB): >1000 µg/mL
IC20 [6]: >1000 µg/mL
IC50 ([6]; RAW 264.7, 48 h, SRB): >1000 µg/mL
IC20 [7]: >1000 µg/mL
IC50 ([7]; 3T3-L1 Pre-adipocyte, 48 h, SRB): >1000 µg/mL
IC20 [8]: >1000 µg/mL
IC50 ([8]; 3T3-L1 Mature-adipocytes, 48 h, SRB): >1000 µg/mL
inhibition of LPS-induced NO production [9]: did not inhibit
effect on iNOS protein level [10]: did not affect
effect on COX-2 protein level [11]: did not affect
effect on level of IL-6 [12]: did not alter
effect on TNF-α level [13]: significantly decreased

Statistical diagnosis vs DI (negative control), Large Single (>2 Cells) [14]: +
Statistical diagnosis vs DI (negative control), Small Single (1–2 Cells) [14]: +
Statistical diagnosis vs DI (negative control), Total Spots [14]: +
Statistical diagnosis vs DI (negative control), Twin [14]: +
total mutant spot, fold greater than the negative control [14]: 15 fold
Frequency of Mutant Spots per Individual (Number of Spots), Large Single (>2 Cells) ([14]; 40 wings): 3.40 (136)
Frequency of Mutant Spots per Individual (Number of Spots), Small Single (1–2 Cells) ([14]; 40 wings): 6.10 (244)
Frequency of Mutant Spots per Individual (Number of Spots), Total Spots ([14]; 40 wings): 10.18 and 10.18 (407)
Frequency of Mutant Spots per Individual (Number of Spots), Twin ([14]; 40 wings): 0.68 (27)
Molecule: CCOC(N)=O [urethane]

Molecule: triton x-100
% Hemolysis (n = 5) [15]: 100 ± 0.00%
